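GI50 = concentration required for 50% inhibition of growth. TGI is the concentration that stops growth completely.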
Experiments:
Experiment in all cases: growth of human tumour cells (NCI), 384-well format
RPMI-8226 leukemia = test system: RPMI-8226 leukemia
HOP-62 NSCLC = test system: HOP-62 NSCLC
CAKI-1 renal = test system: CAKI-1 renal
NCI/ADR-RES ovarian = test system: NCI/ADR-RES ovarian
SF-539 CNS = test system: SF-539 CNS
MDA-MB-435 melanoma = test system: MDA-MB-435 melanoma
HCT-15 colon = test system: HCT-15 colon
NCI-H23 lung = test system: NCI-H23 lung
TK-10 renal = test system: TK-10 renal
OVCAR-4 ovarian = test system: OVCAR-4 ovarian
UACC-62 melanoma = test system: UACC-62 melanoma
786-0 renal = test system: 786-0 renal
M14 melanoma = test system: M14 melanoma
SK-MEL-2 melanoma = test system: SK-MEL-2 melanoma
NCI-H226 lung = test system: NCI-H226 lung
MALME-3M melanoma = test system: MALME-3M melanoma
IGROV1 ovarian = test system: IGROV1 ovarian
HOP-92 NSCLC = test system: HOP-92 NSCLC
DU-145 prostate = test system: DU-145 prostate
MOLT-4 leukemia = test system: MOLT-4 leukemia
BT-549 breast = test system: BT-549 breast
A549 NSCLC = test system: A549 NSCLC
SK-MEL-28 melanoma = test system: SK-MEL-28 melanoma
OVCAR-8 ovarian = test system: OVCAR-8 ovarian
SF-295 CNS = test system: SF-295 CNS
KM12 colon = test system: KM12 colon
NCI-H460 NSCLC = test system: NCI-H460 NSCLC
RXF 393 renal = test system: RXF 393 renal
NCI-H522 lung = test system: NCI-H522 lung

COc1ccccc1-c1nccc(COc2ccccc2C[C@@H](Oc2ncnc3sc(-c4ccc(F)cc4)c(-c4ccc(OCCN5CCN(C)CC5)c(Cl)c4C)c23)C(=O)O)n1
TGI (RPMI-8226 leukemia): < 10 nM | GI50 (HOP-62 NSCLC): 1710 nM | TGI (HOP-62 NSCLC): 3.27 µM | GI50 (CAKI-1 renal): 2750 nM | TGI (CAKI-1 renal): 6.51 µM | GI50 (NCI/ADR-RES ovarian): 26.8 µM | TGI (NCI/ADR-RES ovarian): > 100 µM | GI50 (SF-539 CNS): 1200 nM | TGI (SF-539 CNS): 2470 nM | GI50 (MDA-MB-435 melanoma): 391 nM | TGI (MDA-MB-435 melanoma): 1600 nM | GI50 (HCT-15 colon): 5.29 µM | TGI (HCT-15 colon): 16.2 µM | GI50 (NCI-H23 lung): 45.3 nM | TGI (NCI-H23 lung): 380 nM | GI50 (TK-10 renal): 2380 nM | TGI (TK-10 renal): 5.65 µM | GI50 (OVCAR-4 ovarian): 163 nM | TGI (OVCAR-4 ovarian): 3.11 µM | GI50 (UACC-62 melanoma): 20.6 nM | TGI (UACC-62 melanoma): 57 nM | GI50 (786-0 renal): 1780 nM | TGI (786-0 renal): 3.21 µM | GI50 (M14 melanoma): 1540 nM | TGI (M14 melanoma): 2890 nM | GI50 (SK-MEL-2 melanoma): < 10 nM | TGI (SK-MEL-2 melanoma): < 10 nM | GI50 (NCI-H226 lung): 2040 nM | TGI (NCI-H226 lung): 3.64 µM | GI50 (MALME-3M melanoma): 1080 nM | TGI (MALME-3M melanoma): 2290 nM | GI50 (IGROV1 ovarian): 1660 nM | TGI (IGROV1 ovarian): 3.09 µM | GI50 (HOP-92 NSCLC): 1720 nM | TGI (HOP-92 NSCLC): 3.1 µM | GI50 (DU-145 prostate): 2130 nM | TGI (DU-145 prostate): 4.58 µM | GI50 (MOLT-4 leukemia): < 10 nM | TGI (MOLT-4 leukemia): 17.7 nM | GI50 (BT-549 breast): 1270 nM | TGI (BT-549 breast): 2550 nM | GI50 (A549 NSCLC): 10.6 µM | TGI (A549 NSCLC): 22.5 µM | GI50 (SK-MEL-28 melanoma): 1420 nM | TGI (SK-MEL-28 melanoma): 2730 nM | GI50 (OVCAR-8 ovarian): 1770 nM | TGI (OVCAR-8 ovarian): 3.24 µM | GI50 (SF-295 CNS): 1400 nM | TGI (SF-295 CNS): 2720 nM | GI50 (KM12 colon): 1730 nM | TGI (KM12 colon): 3.14 µM | GI50 (NCI-H460 NSCLC): 1330 nM | TGI (NCI-H460 NSCLC): 3.54 µM | GI50 (RXF 393 renal): 78.6 nM | TGI (RXF 393 renal): 1040 nM | GI50 (NCI-H522 lung): < 10 nM | TGI (NCI-H522 lung): 95.9 nM

— PubChem BioAssay (NCI)
